From US6855728B2, “Small-molecule modulators of hepatocyte growth factor / scatter factor activities” (North Shore-Long Island Jewish Health System, priority 2001, dated 2005)

Tests used:
[1] = tested on: Endothelial cells (HUVECs); assay: Endothelial cell (HUVEC) proliferation assay, 3H thymidine incorporation, compound without added growth factor; type: cell-based, human
Outline: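 HUVECs grown 24 h in EGM-2, starved 1-2 h in RPMI-1% BSA, then exposed 24 h at 37 degrees C to compounds at 1 to 12 microgram/ml without added growth factors. Proliferation read as 3H thymidine incorporation over 4 to 5 h; human iliac artery endothelial cells also used similarly.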

[2] = tested on: MDCK cells exposed to adriamycin; assay: Anti-apoptotic activity assay (MTT viability, adriamycin-induced apoptosis); type: cell-based
[3] = tested on: HGF/SF induced proliferation of HUVEC; assay: Endothelial cell (HUVEC) proliferation assay in the presence of exogenously-added HGF/SF; type: cell-based, human; conditions: Homo sapiens, with HGF/SF, inhibition of HUVEC proliferation
Outline: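 Serum-starved HUVECs were treated 24 h at 37°C with compounds at final 1 to 12 microgram/ml in RPMI-1% BSA. Proliferation was read as ³H-thymidine incorporation over 4 to 5 h, counted after NaOH lysis.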

DU145 cells = assay: Clonogenic assay; type: cell-based; conditions: clonogenic assay over 7 days
Experimental: The effect of (4-(2-chloro-6-fluorobenzyl)-3,5-dimethyl-1H-pyrazole-1-yl)(3-(2,6-dichlorophenyl)-5-methylisoxazol-4-yl)methanone (FIG. 7) and 1-(4-chloro-3-methylphenyl)-3-(2,6-dichlorophenyl)-prop-2-en-1-one were evaluated in a clonogenic assay over 7 days.

[4] = tested on: growth of blood vessels from subcutaneous tissue into Matrigel; assay: In vivo blood vessel ingrowth assay (Matrigel); conditions: mice, Matrigel mixed with compound injected subcutaneously, 10 days
Experimental: Angiogenesis was assayed as growth of blood vessels from subcutaneous tissue into a solid gel of basement membrane containing the test compound. Matrigel in liquid form (0.5 ml) was mixed with a compound of the invention, or basic fibroblast growth factor as a control, and injected into the abdominal subcutaneous tissue of mice as previously described (Kibbey, M. C., Grant, D. S. Auerbach, R. and Kleinman, H. K. [1992] Role of the SIKVAV site of laminin in promotion of angiogenesis and tumor growth: an in vivo Matrigel model. J. Natl. Can. Inst. 84, 1633-38). After 10 days, mice were sacrificed and the Matrigel plugs were removed, fixed, sectioned, stained and examined for ingrowth of blood vessels.

VEGF-like activity = assay: Screen for VEGF-like activity in a standard assay; type: cell-based; conditions: for VEGF-like activity: 2 microgram/ml compound
Excerpt: Compounds were screened for VEGF-like activity in a standard assay using 2 microgram/ml compound.

For “HGF/SF: hepatocyte growth factor/scatter factor, pleiotropic growth factor; evaluated as a positive control”, the “effect on HUVEC proliferation, substance alone (FIG. 5)” value [1] was “increases the proliferation of HUVEC”, the “protection from adriamycin-induced apoptosis” value ([2]; MDCK cells) was 94% and the “cell viability, substance alone” value ([2]; without adriamycin) was “unchanged”.
`Cc1nn(C(=O)c2c(-c3c(Cl)cccc3Cl)noc2C)c(C)c1Cc1c(F)cccc1Cl` [(4-(2-chloro-6-fluorobenzyl)-3,5-dimethyl-1H-pyrazole-1-yl)(3-(2,6-dichlorophenyl)-5-methylisoxazol-4-yl)methanone] was tested, and the inhibition at 2 µg/mL ([3]; 2 microgram/ml, read-out: Activity at 2 microgram/ml With HGF/SF: inhibition (blocked SF)) was 40 to 90%, the inhibition at 6 µg/mL ([3]; 6 microgram/ml, read-out: Activity at 6 microgram/ml With HGF/SF: inhibition (blocked SF)) was 50 to 100% and the “Activity at 2 microgram/ml Without HGF/SF (result in words)” value ([1]; 2 microgram/ml, without HGF/SF) was “No effect”. The DU145 cell growth (DU145 cells) was “dose responsive inhibition” and the “ingrowth of blood vessels into Matrigel plug” value [4] was “significant stimulation of blood vessel ingrowth”.
For `COc1cccc2c1C(=O)c1c(O)c3c(c(O)c1C2=O)C[C@@](O)(C(=O)CO)C[C@@H]3O[C@H]1C[C@H](N)[C@H](O)[C@H](C)O1` [Adriamycin, reference compound], the cell viability ([2]; Adriamycin (15 µM)) was 56 % of control.
With `CN(C)c1nc(-c2ccccc2)nc(-c2ccc(Cl)cc2)c1C#N` [VC14, 4-(4-chlorophenyl)-6-(dimethylamino)-2-phenyl-5-pyrimidinecarbonitrile] the VEGF-like activity (VEGF-like activity) was “positive activity”.
With VEGF the “activity of VEGF in the VEGF-like activity assay” value (VEGF-like activity) was 1259±104 cpm.
With `O=C1c2ccccc2N(c2ccccc2)C(=O)C1(Br)Br` [VC8, 3,3-dibromo-1-phenyl-1,2,3,4-tetrahydroquinoline-2,4-dione] the VEGF-like activity (VEGF-like activity) was “positive activity”.
